The test system of one experiment is A549. Put plainly: Cytotoxicity against human A549 cells after 48 hrs by MTT assay. It is filed as cell-based. As to conditions: A549, 48 h. (Tetrazolium assays rely on reduction of a dye to a coloured formazan, in cell work by metabolically active cells.)
In experiment [1] the test system is Mycolicibacterium smegmatis. Put plainly: Antimycobacterial activity against Mycobacterium smegmatis MC2 155 ATCC 14468 after 32 hrs by turbidimetry. It is filed as functional. As to conditions: MC2 155 ATCC 14468, 32 h.

Each structure is given as a SMILES string. Converted amounts (≈) assume the structure as drawn.

In general, IC50 refers to the concentration that inhibits the measured activity by half. High values mean a need for much substance, low ones inhibition by little substance. For orientation: MIC90 means an inhibitory concentration at the 90% level, which refers to growth in some studies and to a panel of isolates in others. Take `COc1ccc(C2CC(c3cc4ccccc4nc3C)=NN2C(C)=O)cc1OC` (centres undefined): the IC50 with A549 was over 200 µg/mL. The same molecule gave an MIC90 in experiment [1] of over 70 µg/mL.

In turn, `COc1cc(-c2nnc(-c3cc4ccccc4nc3C)o2)cc(OC)c1OC` returned an IC50 in the experiment with A549 of 113 µg/mL. Also, the MIC90 in experiment [1] came out at 61.9 µg/mL (≈ 164 µM).

On to `CC(=O)N1N=C(c2cc3ccccc3nc2C)CC1c1ccc([N+](=O)[O-])cc1` (centres undefined), for which the 50% inhibitory concentration (IC50) in the experiment with A549 was over 200 µg/mL. The MIC90 in experiment [1] is 50.7 µg/mL (≈ 135 µM).

`CC(=O)N1N=C(c2cc3ccccc3nc2C)CC1/C=C/c1ccccc1` (centres undefined) gave an IC50 with A549 of 93.3 µg/mL. Also, the MIC90 in experiment [1] is over 70 µg/mL.

The molecule `COc1cc(C2CC(c3cc4ccccc4nc3C)=NN2C(C)=O)cc(OC)c1OC` (centres undefined) had an IC50 in the experiment with A549 of over 200 µg/mL. Further, in experiment [1], the MIC90 is 52.1 µg/mL (≈ 124 µM).

Regarding `COc1ccc(C2CC(c3cc4ccccc4nc3C)=NN2C(C)=O)c(OC)c1OC` (centres undefined), the IC50 in the experiment on A549 was 86.5 µg/mL. This molecule also displayed an MIC90 in experiment [1] of 46.2 µg/mL (≈ 110 µM).

In turn, `Cc1nc2ccccc2cc1-c1nnc(-c2cn(-c3ccccc3)nc2-c2ccccc2)o1` had an IC50 in the experiment on A549 of over 200 µg/mL. In experiment [1], this molecule had an MIC90 of over 70 µg/mL.

By MIC50 is commonly meant the lowest concentration that inhibits either 50% of growth or 50% of the strains tested, depending on the study. The low end stands for higher susceptibility, the high end for lower susceptibility. Consider `Cc1nc2ccccc2cc1C(=O)NN`, for which, in the experiment on A549, the IC50 came to 96.4 µM. In experiment [1], this molecule registered an MIC50 of over 50 µg/mL.

As to `Cc1nc2ccccc2cc1-c1csc(N)n1`, in the experiment on A549, the IC50 was over 200 µM. This molecule registered an MIC50 in experiment [1] of over 50 µg/mL.

As for `COc1ccc(C2CC(c3cc4ccccc4nc3C)=NN2C(C)=O)cc1` (centres undefined), in the experiment on A549, inhibition was half-maximal at 116 µg/mL (IC50). Further, the MIC90 in experiment [1] was over 70 µg/mL.

On to `CC(=O)N1N=C(c2cc3ccccc3nc2C)CC1c1cccc(Oc2nc(Cl)c(Cl)cc2Cl)c1` (centres undefined), for which, in the experiment on A549, the IC50 was 72.7 µg/mL. In experiment [1], this molecule had an MIC90 of 64.9 µg/mL (≈ 123 µM).

`Cc1nc2ccccc2cc1C(=O)n1nc(C)c(C2CCCCO2)c1C` (centres undefined) registered an IC50 with A549 of 143 µg/mL. The molecule also displayed an MIC90 in experiment [1] of over 70 µg/mL.

In turn, `Cc1nc2ccccc2cc1-c1ccnc(N)n1` came in with an IC50 with A549 of 94.2 µM. For the same molecule, the MIC50 in experiment [1] is over 50 µg/mL.

Take `Cc1nc2ccccc2cc1-c1nnc(-c2cccnc2)o1`: half-maximal inhibition in the experiment on A549 (IC50) required 139 µg/mL. This molecule returned an MIC90 in experiment [1] of 22.7 µg/mL (≈ 78.8 µM).

For the molecule `Cc1nc2ccccc2cc1-c1nnc(C(C)c2ccccc2)o1` (centres undefined), it took 165 µg/mL to reach half-maximal inhibition in the experiment on A549 (IC50). This molecule returned an MIC90 in experiment [1] of 35.9 µg/mL (≈ 114 µM).

For the molecule `CC(=O)N1N=C(c2cc3c(Cl)cccc3nc2C)CC1c1ccc(C)cc1` (centres undefined), the IC50 in the experiment with A549 was 166 µg/mL. Besides, the MIC90 in experiment [1] is over 70 µg/mL.

`CCOc1c(F)c(F)c(C2CC(c3cc4ccccc4nc3C)=NN2C(C)=O)c(F)c1F` (centres undefined) returned an IC50 in the experiment on A549 of 115 µg/mL. The MIC90 in experiment [1] is over 70 µg/mL.

In the experiment on A549, `Cc1nc2ccccc2cc1-c1nnc(-c2ccc(C(C)C)cc2)o1` displayed an IC50 of 103 µg/mL. This molecule also yielded an MIC90 in experiment [1] of 41 µg/mL (≈ 125 µM).

Take `CC(=O)n1ccc(-c2cc3ccccc3nc2C)n1`: in the experiment with A549, the half-inhibitory concentration (IC50) was found to be 87 µg/mL. The molecule also displayed an MIC90 in experiment [1] of 17.3 µg/mL (≈ 69 µM).

As to `COc1cc(C2CC(c3cc4ccccc4nc3C)=NN2c2ccccc2)cc(OC)c1OC` (centres undefined), the IC50 with A549 is over 200 µg/mL. In experiment [1], this molecule returned an MIC90 of over 70 µg/mL.

For the molecule `CO[C@H]1/C=C/O[C@@]2(C)Oc3c(C)c(O)c4c(O)c(c(/C=N/N5CCN(C)CC5)c(O)c4c3C2=O)NC(=O)/C(C)=C\C=C\[C@H](C)[C@H](O)[C@@H](C)[C@@H](O)[C@@H](C)[C@H](OC(C)=O)[C@@H]1C` [RIFAMPIN], in experiment [1], the MIC50 was 2.08 µg/mL (≈ 2.53 µM) and the MIC90 is 2.15 µg/mL (≈ 2.61 µM).

Turning to `Cc1nc2ccccc2cc1-c1nnc(CCc2ccccc2)o1`, it took 145 µM to reach half-maximal inhibition in the experiment on A549 (IC50). This molecule also registered an MIC50 in experiment [1] of 35 µg/mL (≈ 111 µM).

Take `Cc1nc2ccccc2cc1-c1nnc(-c2ccccc2C(=O)O)o1`: the IC50 with A549 worked out at 106 µg/mL. In addition, the MIC90 in experiment [1] worked out at 43.3 µg/mL (≈ 131 µM).

On to `Cc1nc2ccccc2cc1-c1nnc(-c2coc3ccccc3c2=O)o1`, for which the IC50 in the experiment on A549 is 111 µg/mL. Moreover, in experiment [1], the MIC90 came to 16.8 µg/mL (≈ 47.4 µM).

`Cc1nc2ccccc2cc1C1=NN(c2ccccc2)C(c2ccc(Br)cc2)C1` (centres undefined) showed an IC50 in the experiment with A549 of 93 µg/mL. Further, the MIC90 in experiment [1] was over 70 µg/mL.

`COc1ccc(OC)c(-c2nnc(-c3cc4ccccc4nc3C)o2)c1` registered an IC50 in the experiment with A549 of 134 µg/mL. Also, in experiment [1], the MIC90 came to 29.2 µg/mL (≈ 84 µM).

In the case of `Cc1nc2ccccc2cc1-c1nnc(-c2ccc(F)c(C(F)(F)F)c2)o1`, in the experiment with A549, the IC50 came out at 93.3 µg/mL. Besides, the MIC90 in experiment [1] worked out at 47.5 µg/mL (≈ 127 µM).

The molecule `CC(=O)N1N=C(c2cc3ccccc3nc2C)CC1c1ccc(C#N)cc1` (centres undefined) registered an IC50 in the experiment with A549 of over 200 µg/mL. The molecule also registered an MIC90 in experiment [1] of over 70 µg/mL.

In the experiment on A549, `Cc1nc2ccccc2cc1-c1nnc(-c2cccc(Oc3ccccc3)c2)o1` registered an IC50 of 146 µg/mL. In experiment [1], this molecule yielded an MIC90 of over 70 µg/mL.

For the molecule `Cc1nc2ccccc2cc1-c1cn2ccccc2n1`, half-maximal inhibition with A549 (IC50) was put at 118 µM. Besides, in experiment [1], the MIC50 is over 50 µg/mL.

In turn, `Cc1nc2ccccc2cc1-c1nnc(-c2cccs2)o1` gave an IC50 in the experiment with A549 of 99.4 µg/mL. Further, the MIC90 in experiment [1] stood at 39.7 µg/mL (≈ 135 µM).

As for `CCCCCc1nnc(-c2cc3ccccc3nc2C)o1`, in the experiment with A549, the IC50 turned out to be 72.2 µg/mL. The molecule also had an MIC90 in experiment [1] of over 70 µg/mL.

As for `COc1ccc(OC)c(C2CC(c3cc4ccccc4nc3C)=NN2C(C)=O)c1` (centres undefined), inhibition in the experiment with A549 was half-maximal at 111 µg/mL (IC50). Besides, in experiment [1], the MIC90 is over 70 µg/mL.

In the case of `CC(=O)N1N=C(c2cc3ccccc3nc2C)CC1c1ccc(Oc2nc(Cl)c(Cl)cc2Cl)cc1` (centres undefined), the IC50 in the experiment on A549 is over 200 µg/mL. Moreover, the MIC90 in experiment [1] is over 70 µg/mL.

In the experiment on A549, `Cc1cc(C)n(C(=O)c2cc3ccccc3nc2C)n1` returned an IC50 of 97.9 µg/mL. This molecule also registered an MIC90 in experiment [1] of 24.1 µg/mL (≈ 90.9 µM).

In experiment [1], `NNC(=O)c1ccncc1` [ISONIAZID] had an MIC50 of 12.1 µg/mL (≈ 88 µM) and an MIC90 of 11.8 µg/mL (≈ 85.9 µM).

Consider `Cc1ccc(-c2nnc(-c3cc4ccccc4nc3C)o2)cc1`, for which half-maximal inhibition in the experiment with A549 (IC50) required 175 µg/mL. The MIC90 in experiment [1] turned out to be 35 µg/mL (≈ 116 µM).

As for `CC(=O)N1N=C(c2cc3ccccc3nc2C)CC1c1ccc(N(C)C)cc1` (centres undefined), the IC50 in the experiment with A549 was 110 µg/mL. The molecule further gave an MIC90 in experiment [1] of over 70 µg/mL.

As to `Cc1nc2ccccc2cc1-c1nnc(-c2ccc(OC(F)(F)F)cc2)o1`, the IC50 in the experiment on A549 worked out at 91.1 µg/mL. In experiment [1], this molecule came in with an MIC90 of over 70 µg/mL.

As for `COc1ccc(C2CC(c3cc4ccccc4nc3C)=NN2c2ccccc2)c(OC)c1OC` (centres undefined), the IC50 with A549 was found to be 143 µg/mL. In addition, the MIC90 in experiment [1] came out at 43.5 µg/mL (≈ 96 µM).

`COc1cc(OC)c(C2CC(c3cc4ccccc4nc3C)=NN2C(C)=O)c(OC)c1` (centres undefined): in the experiment on A549, inhibition was half-maximal at 171 µM (IC50). This molecule gave an MIC50 in experiment [1] of 57.9 µg/mL (≈ 138 µM).

As for `Cc1nc2ccccc2cc1-c1cc[nH]n1`, half-maximal inhibition with A549 (IC50) required 138 µM. Further, in experiment [1], the MIC50 turned out to be 14.7 µg/mL (≈ 70.1 µM).
